Data published in US9585854B2, “N-acetyl-L-cysteine for use in in vitro fertilization” (IASOMAI AB, priority 2012, dated 2017).
Where two headings read alike, the source gives them in different places.

Assays:
human spermatozoa = assay: human sperm motility bioassay (toxicity test); format: cell-based
Description: The eventual occurrence of NAC embryotoxicity was preliminary tested.
Assessments of human sperm motility were performed on fresh samples taken from 3 healthy donors with good seminal parameters including sperm motility and velocity. Migration or “Swim-up” on human sperm preparation medium was applied to select motile spermatozoa. After selection each semen sample was divided into 3 aliquots transferred to Eppendorf tubes. In addition to one control tube, two tubes had NAC added at concentrations of 100 and 1,000 nM. Tubes were incubated in a 5% CO2 environment, with constant temperature and humidity conditions for 24 hours. Sperm motility was assessed using a contrast phase microscope at a 400 times magnification after 1, and 24 hours of exposure to NAC. Assessment was performed over a fixed time interval of 2 minutes. Nine samples were assessed for sperm motility and velocity by 36 measurements (2 measurements at 1 and 24 h per sample).

[1] = tested on: Isolated uteri from virgin Wistar rats; assay: isolated organ bath study of uterine contractions; parameters: species or system rat
Description: Animals were kept at 22° C., housed 3 per cage and fed ad libitum. Isolated uteri from virgin Wistar rats (200-280 g) in estrous, which was determined by examination of a daily vaginal smear, were used.
Protamine sulphate (PS) and NAC were dissolved in pure water.
All rats were sacrificed by cervical dislocation. The uterine horns were excised, carefully cleaned and mounted vertically in a 10 ml volume organ bath containing De Jalon's solution (NaCl 154 mM, KCl 5.6 mM, CaCl2×2H2O 0.41 mM, NaHCO 2 5.9 mM and glucose 2.8 mM), under 1 g tension, aerated with 95% oxygen and 5% carbon dioxide at 37° C. […] After 10 min increasing concentrations of PS were added until the total cessation of contractions was observed.
Myometrial tension was recorded isometrically with an organ bath and transducer.
Effects of treatments on uterine contractions were calculated as percentages for control, untreated and contracting conditions. Each data value is expressed as the mean±SEM. differences between groups were analyzed by two-way ANOVA. EC50 values were compared using one-way ANOVA

[2] = parameters: species or system human; details: in vivo
Description: GSH is e.g. normally conjugated to reactive metabolites formed by paracetamol and helps detoxify them. When paracetamol is overdosed GSH is however depleted and the paracetamol metabolites start reacting with cellular proteins, eventually leading to cell death. In the treatment of fulminant hepatic failure after paracetamol poisoning NAC acts instead of GSH in the detoxification of paracetamol metabolites.
The composition of the present invention, comprising NAC for the treatment of IVF according to one embodiment to be administered intravenously at a dose between approximately 50 and 150 mg/kg/day.
For overcoming this in cases of oral administration, an option is to provide NAC in a formulation with gastric protection, suitable for preventing NAC release/solubility in the stomach. Such formulations are well known in the art and may be used with the present invention. For example, tablet coatings that are resistant to gastric fluids and allow release of the drug only in the intestine, after its transit through the stomach, may be used. Commonly used formulations include polymers such as cellulose derivatives, methacrylate amino ester copolymers. […]

[3] = cited from earlier work

## CC(=O)N[C@@H](CS)C(=O)O [NAC, N-acetyl-L-cysteine]
Human spermatozoa
  adverse influence on human spermatozoa: failed to show an adverse influence
Human spermatozoa; NAC 100 and 1,000 nM, 1 and 24 hours of exposure
  human sperm motility or velocity compared to controls: no effects
Human spermatozoa; concentrations up to 50-fold therapeutic blood concentrations
  embryotoxic effect: failed to detect an embryotoxic effect
[1]; NAC pre-treatment 1 μg/ml, spontaneously active uteri
  effect of pre-treatment on PS-induced relaxation: increased PS-induced relaxation
[1]; calcium ion-induced uterine contractions
  effect of pre-treatment on PS-induced relaxation: modulated PS-induced relaxation
[2]
  side effect of high oral doses: may cause abdominal pain
[3]; daily total NAC dose, per os
  side effects: virtually free of side effects
[3]; general, doses in paracetamol poisoning about 40 g/day for 70 kg
  undesired side effect: virtually absent of undesired side effect
[3]; intravenous, higher limit 150 mg/kg/day
  side effects: virtually no side effects
